Assay results as given in patent US7282507B2, “Indole derivatives as selective androgen receptor modulators (SARMS)” (Janssen Pharmaceutica N.V., priority 2004, dated 2007).
“And” between values parts separate entries of the source, which are not always exact repeats. Identical values can stand only once.

Assays:
[1] = target: T1, androgen receptor (rat ventral prostate cytosol) (Rattus norvegicus, UniProt P15207); assay: Androgen Receptor Binding Using Rat Ventral Prostate Cytosol; conditions: for % Inhibition, Androgen Receptor Binding (Rat Cytosol): Concentration 1000 nM; for IC50: read-out: IC50 (nM), Androgen Receptor Binding (Rat Cytosol)
T1 construct: from tissue; host or cells: ventral prostate cytosol of castrated male Sprague Dawley or Wistar rats
T1 sequence (P15207 1-902): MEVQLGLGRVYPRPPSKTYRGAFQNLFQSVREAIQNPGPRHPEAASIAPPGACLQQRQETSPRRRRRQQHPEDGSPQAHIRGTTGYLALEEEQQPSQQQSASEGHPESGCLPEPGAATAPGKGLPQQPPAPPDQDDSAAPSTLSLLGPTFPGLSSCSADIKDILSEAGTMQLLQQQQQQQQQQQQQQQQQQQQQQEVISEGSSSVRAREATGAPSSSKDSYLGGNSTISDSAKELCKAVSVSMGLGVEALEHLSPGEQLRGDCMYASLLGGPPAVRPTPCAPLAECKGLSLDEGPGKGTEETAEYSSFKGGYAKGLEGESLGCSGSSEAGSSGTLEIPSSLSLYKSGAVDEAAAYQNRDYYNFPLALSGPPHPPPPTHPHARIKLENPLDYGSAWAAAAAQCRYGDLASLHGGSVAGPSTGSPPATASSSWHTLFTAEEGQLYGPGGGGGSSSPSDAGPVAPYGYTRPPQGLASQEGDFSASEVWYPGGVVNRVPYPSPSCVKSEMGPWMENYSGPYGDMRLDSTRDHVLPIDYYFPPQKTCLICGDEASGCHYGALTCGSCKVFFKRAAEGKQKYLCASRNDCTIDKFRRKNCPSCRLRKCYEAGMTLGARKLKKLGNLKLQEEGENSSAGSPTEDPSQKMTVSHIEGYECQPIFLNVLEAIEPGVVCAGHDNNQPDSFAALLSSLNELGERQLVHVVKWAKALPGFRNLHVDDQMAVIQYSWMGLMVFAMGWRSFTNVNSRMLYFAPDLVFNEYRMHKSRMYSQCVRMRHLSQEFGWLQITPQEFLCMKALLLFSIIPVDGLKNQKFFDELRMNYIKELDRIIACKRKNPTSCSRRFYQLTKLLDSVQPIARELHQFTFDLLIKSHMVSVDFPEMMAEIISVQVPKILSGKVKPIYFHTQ
Protocol: The assay was run on a 96 well plate with each well filled with a total reaction volume 150 μL, of a solution containing 5 pmol androgen receptor LBD (Panvera) or 30 μL of freshly prepared rat cytosol, 0.5 nM [^3H] […] (TED buffer contains 10 mM Tris.HCl pH 7.4, 1 mM sodium molybdate, 1.5 mM EDTA, 1 mM DTT and 10% (v/v) glycerol.)
On day one, the solution containing receptor, tracer and TED buffer was distributed into a 96 well plate. Diluted test compound or control vehicle was then added to individual wells and the plate incubated at 4° C. overnight.
On day two, to each well was then added 20 μL human γ-globulin (ICN 823102), prepared at 25 mg/ml in TE pH 8.0, and 55 μL 40% polyethylene glycol 8000 (J T Baker U222-08), prepared in TE pH 8.0. The plate was incubated at 4° C. for 60 minutes. During incubation, the harvester was rinsed with 10% PEG 8000, prepared in TE pH 8.0, and a GF/C Unifilter-96 was pre-wet with 10% PEG. The binding reaction was filtered, the retentate was washed three times with 10% PEG and dried under vacuum for a couple of minutes, then dried at 50° C. for 5 min and the plate was bottom sealed. Next, 25 μL of Microscint-20 (Packard) was added to the filter wells and the plate was top sealed. The plate wells were then counted on a TopCount (Packard).
Rat Prostate Cytosol Preparation:
Male Sprague Dawley or Wistar rats (Charles River, 200-300 g) were used for each preparation. The day before preparing the cytosol, the rats were castrated using standard surgical procedures.
The rats were euthanized by carbon dioxide asphyxiation. The rat prostates were quickly removed and placed on ice in pre-chilled, pre-weighed 50 mL plastic tubes. No more than five prostates were placed into one tube. The tubes were then weighed and the prostate tissue wet weights calculated.
To the chilled prostate tissue was then added […] of chilled homogenization buffer. The homogenization buffer was freshly prepared by mixing 10 mM Tris.HCl, pH 7.4, 1 mM sodium molybdate, 1.5 mM EDTA, 1 mM dithiothreitol, 10% (v/v) glycerol and 1% protease inhibitor cocktail (Sigma P 8340).
The prostate tissue was homogenized in a cold room using a pre-chilled Polytron PT3000 homogenizer (Brinkmann). Homogenization was performed at a speed setting of 20, three times for 10 sec bursts. The tubes containing the prostate tissue was kept on ice while homogenizing. The homogenate was allowed to rest on ice for 20 sec between bursts.
The homogenate was then placed into pre-chilled 3 mL polycarbonate ultracentrifuge tubes and centrifuged in the TLA-100 rotor of a TL-100 ultracentrifuge for 12 min at 100,000 rpm at 4° C. The resulting supernatant was stored in 1 mL aliquots at −80° C. until needed.
Binding to the androgen receptor was determined according to the protocol described in Example 86 using the above prepared rat cytosol.
% Inhibition was determined by testing dilutions of the test compound (usually duplicates of 10 μM) in the binding assay. Counts per well were measured and percents of inhibition determined. […] Counts per well were measured and IC50s determined by linear regression.

[2] = target: T2, androgen receptor (AdEasy+rAR, L929 cells) (Rattus norvegicus, UniProt P15207); assay: L929 Androgen Receptor Functional Assay, Adenovirus Transduction; format: cell-based; conditions: for % Activity, L929 androgen receptor functional assay / EC50: agonist testing; for % Inhibition, L929 androgen receptor functional assay: antagonist testing with R1881, 3000 nM; for inhibition at 3 µM: L929, antagonist testing with R1881, 3000 nM; for IC50: antagonist testing with R1881
T2 construct: expressed in transfected cells; host or cells: L929 cells transduced with adenovirus AdEasy+rAR
T2 sequence (P15207 1-902): T1 sequence (P15207 1-902)
Protocol: L929 cells were plated in 96-well plates at 20,000 cells per well, in DMEM/F12 (GIBCO) containing 10% (v/v) charcoal-treated fetal bovine serum (Hyclone) and lacking phenol red. The plates were then incubated overnight at 37° C. in 5% (v/v) humidified CO2.
Test compound dilutions were prepared in 100% (v/v) DMSO, if necessary. Each dilution was made to 1250× the final desired assay concentration.
First, 2 mL of DMEM/F12 lacking phenol red was pipetted into the wells of a 2-mL 96-well assay block. Next, 4 μL of the 1250× test compound dilutions were pipetted into each well of the assay block. The mixtures within the well were then carefully mixed by pipette.
In a 15 mL or 50 mL sterile centrifuge tube, a 2.5 nM (2.5×) dilution of R1881 (methyl-trienolone) in DMEM/F12 lacking phenol red was prepared.
In a second 15 mL or 50 mL centrifuge tube a solution containing an equal volume of DMEM to the first and an equal volume of 100% (v/v) DMSO to the volume of R1881 used in the first tube was prepared.
In a 15 mL or 50 mL sterile centrifuge tube, a dilution in DMEM/F12 of the adenovirus AdEasy+rAR at an moi of 1:500 per well was prepared.
The medium was removed from the 96-well plates by inversion and dried, inverted, very briefly. As soon as possible after medium removal, 40 μL of the diluted unlabeled test compound was added to each well, in duplicate. To each well designated for antagonist testing was added 40 μL of the 2.5 nM R1881 dilution to the wells for antagonist testing. To each well designated for agonist testing was added 40 μL of the DMSO dilution. Then 20 μL of the diluted adenovirus were added to all wells. The plates were incubated for 48 hours at 37° C. in 5% (v/v) humidified CO2.
To each well was added 100 μL of Steady-Glo luciferase assay substrate (Promega) and the plates were placed on a rotary shaker for 1 min. The plates were then incubated at room temperature in the dark for one hour. The contents of each well were then transferred to a white microtiter plate (Packard) and read on a Luminoskan Ascent (Thermo Lab Systems).
L929 AR percent activity was determined by testing dilutions of the test compound using a concentration of 3000 nM unless otherwise noted. L929 percent inhibition was determined by testing dilutions of the test compound using a concentration of 3000 nM. […] Luciferase activity per well were measured and EC50s and IC50s determined by linear regression.

[3] = system: testosterone-enhanced ventral prostate and seminal vesicle weights; assay: Ventral Prostate and Seminal Vesicle Weight in vivo Assay; design: species or system rat; conditions: immature castrated male Sprague Dawley rats, once daily for five days, usually orally 40 mg/kg, with testosterone propionate 2 mg/kg s.c. Also: key: 'active' if the non weight adjusted prostate weight was ≦40 mg or the % Inhibition prostate weight, body weight adjusted was ≧40% @ 2 mg/day dosage; ID50's, if determined, of ≦15 mg/day also indicated an 'active' compound; listed herein as 'inactive' as they did not meet the specified criteria defined above.
Protocol: Immature (approximately 50 g) castrated male Sprague Dawley rats (Charles River) were treated once daily for five days with test compound (usually given orally at 40 mg/kg in a volume of 0.3 mL, in 30% cyclodextrin or 0.5% methylcellulose vehicle) and with testosterone propionate (given subcutaneously by injection at the nape of the neck at 2 mg/kg, in a volume of 0.1 mL in sesame oil). On the sixth day, the rats were euthanized by asphyxiation in carbon dioxide. Ventral prosatates and seminal vesicles were removed and their wet weights determined.
A test compound was said to be “active” if the non weight adjusted prostate weight was ≦40 mg or the % Inhibition prostate weight, body weight adjusted was ≧40% @ 2 mg/day dosage.

Row | Compound | IC50 [1] [nM] | % Activity, L929 androgen receptor functional assay ([2]; 3000 nM) [%] | active / inactive: inhibition of testosterone-enhanced prostate weight [3] | further results
1 | OC1(c2cc3cc(Cl)c(C(F)(F)F)cc3[nH]2)CCN(Cc2ccc(C(F)(F)F)cc2)CC1 [Compound 33] | 29000 | – | – | % Inhibition, Androgen Receptor Binding (Rat Cytosol) [1]: 11%
2 | CC(O)(CSCc1ccco1)c1cc2cc([N+](=O)[O-])c(C(F)(F)F)cc2[nH]1 (racemic) [Compound 198] | – | 7 | inactive | –
3 | CC(O)(C[S+]([O-])c1ccccc1)c1cc2cc(Cl)c(C(F)(F)F)cc2[nH]1 (stereo not shown) [Compound 115] | 1300 | – | – | % Inhibition, Androgen Receptor Binding (Rat Cytosol) ([1]; 1 µM): 54.5%
4 | CC(O)(CS(=O)(=O)CC(F)(F)F)c1cc2cc([N+](=O)[O-])c(C(F)(F)F)cc2[nH]1 (racemic) [Compound 208] | – | 1 | active | –
5 | O=[N+]([O-])c1cc2cc(C3(O)CCN(Cc4ccc(Cl)c(Cl)c4)CC3)[nH]c2cc1C(F)(F)F [Compound 43] | 9100 | – | – | % Inhibition, Androgen Receptor Binding (Rat Cytosol) [1]: 5.8%
6 | Cc1ccc(CN2CCC(O)(c3cc4cc([N+](=O)[O-])c(C(F)(F)F)cc4[nH]3)CC2)cc1 [Compound 27] | 3100 | – | – | –
7 | COc1cccc(CN2CCC(O)(c3cc4cc(Cl)c(C(F)(F)F)cc4[nH]3)CC2)c1 [Compound 29] | 4700 | – | – | % Inhibition, Androgen Receptor Binding (Rat Cytosol) [1]: −1.8%
8 | OC1(c2cc3cc(Cl)c(C(F)(F)F)cc3[nH]2)CCN(Cc2ccc(Cl)c(Cl)c2)CC1 [Compound 36] | > 100000 | – | – | % Inhibition, Androgen Receptor Binding (Rat Cytosol) [1]: −34%
9 | CC[S+]([O-])CC(O)c1cc2cc([N+](=O)[O-])c(C(F)(F)F)cc2[nH]1 (mixture of isomers) [Compound 180] | – | 2 | inactive | –
10 | CSCCC(C)(O)c1cc2cc(Cl)c(C(F)(F)F)cc2[nH]1 (racemic) [Compound 51] | – | 2 | inactive | –
11 | CCSCC(C)(O)c1cc2cc(C#N)c(C(F)(F)F)cc2[nH]1 (stereo not shown) [Compound 218, 2-(2-Ethylsulfanyl-1-hydroxy-1-methyl-ethyl)-6-trifluoromethyl-1H-indole-5-carbonitrile] | – | 0 | inactive | % Inhibition, L929 androgen receptor functional assay ([2]; 3 µM): 62%
12 | CCS(=O)(=O)CC(C)(O)c1cc2cc(C#N)c(C(F)(F)F)cc2n1C (racemic) [Compound 240] | – | 0 | inactive | –
13 | CCCSCC(C)(O)c1cc2cc(Cl)c(C(F)(F)F)cc2[nH]1 (racemic) [Compound 196] | – | 13 | inactive | –
14 | CC(O)(CS(=O)(=O)CC(F)(F)F)c1[nH]c2cc([N+](=O)[O-])c(C(F)(F)F)cc2c1Cl (stereo not shown) [Compound 207] | – | – | active | inhibition at 3 µM [2]: 101%; EC50 [2]: > 8000 nM; % Activity, L929 androgen receptor functional assay ([2]; 3000 nM, 3 µM): 1% and −1%; IC50 [2]: 492 nM; % Inhibition, L929 androgen receptor functional assay [2]: 101%
15 | CCSCC(C)(O)c1cc2cc([N+](=O)[O-])c(C(F)(F)F)cc2[nH]1 (racemic) [Compound 221] | – | −1 | inactive | –
16 | CCSCC(O)(CC)c1cc2cc(C#N)c(C(F)(F)F)cc2[nH]1 (stereo not shown) [Compound 223] | – | – | active | inhibition at 3 µM [2]: 100%; EC50 [2]: > 8000 nM; % Activity, L929 androgen receptor functional assay ([2]; @ 8000 nM): 0 @ 8000 nM %; IC50 [2]: 277 nM
17 | CC[S+]([O-])CC(C)(O)c1cc2cc(C(F)(F)F)c([N+](=O)[O-])cc2[nH]1 (mixture of isomers) [Compound 230] | – | 0 | active | –
18 | CSC(C)(O)c1cc2cc([N+](=O)[O-])c(C(F)(F)F)cc2[nH]1 (racemic) [Compound 267] | – | – | inactive | % Activity, L929 androgen receptor functional assay ([2]; 3000 nM, 3 µM): −5% and 0%
